Measured values published in US8557800B2, “Sphingosine kinase inhibitors” (Apogee Biotechnology Corporation, priority 2005, dated 2013).
Where “and” joins values, the source holds several entries; their conditions need not be identical. Identical values can stand only once. Like-named read-outs stand apart in the source and are kept apart here.

Assays:
[1] = Oral pharmacokinetics in mice (PEG400); type: in vivo; settings: mouse, blood, 100 mg/kg oral gavage in PEG400, female Swiss-Webster mice
Protocol: Oral pharmacokinetic studies were performed on Compounds 62 and 57. Each compound was dissolved in PEG400 and administered to female Swiss-Webster mice at a dose of 100 mg/kg by oral gavage. Mice were anesthetized and blood was removed via cardiac puncture at 5 minutes, 30 minutes, 1, 2, and 8 hours. Concentrations of the test compounds were determined using liquid-liquid extraction, appropriate internal standards and reverse phase HPLC with UV detection. Control blood samples were run to identify compound-specific peaks. Pharmacokinetic parameters were calculated using the WINNONLIN analysis software package (Pharsight). Non-compartmental and compartmental models were tested, with the results shown in Table 7 derived from the best fit equations.

VCAM-1 = test: TNFα-induced adhesion molecule expression, Western analysis; type: cell-based; settings: human endothelial cells, TNFα 100 ng/mL 6 hours, 25 μM compound
Protocol: (§1) Like endothelial cells in the body, HUVECs will proliferate in response to several growth factors, and will respond to inflammatory cytokines such as TNFα and IL-1β. Western analyses were conducted with human endothelial cells to evaluate the effects of the SK inhibitors on signaling proteins known to be regulated by TNFα. In these experiments, the cells were serum-starved for 24 hours and then exposed to TNFα (100 ng/mL) for 6 hours. Cell lysates from treated cells were assayed for the adhesion molecules ICAM-1 and VCAM-1. TNFα caused marked increases in the expression levels of adhesion proteins involved in leukocyte recruitment, including ICAM-1 and VCAM-1.

ICAM-1 = test: as above; type: cell-based; settings: human endothelial cells, TNFα 100 ng/mL 6 hours, 25 μM compound
Protocol: as §1

[2] = test system: mouse JC mammary adenocarcimona cell line growing subcutaneously in Balb/c mice
Protocol: The antitumor activity of the representative SK inhibitors were evaluated using a syngeneic tumor model that uses the mouse JC mammary adenocarcimona cell line growing subcutaneously in immunocompetent Balb/c mice (Lee et al., 2003, Oncol Res 14: 49).
In FIG. 1, Balb/c mice, 6-8 weeks old, were injected subcutaneously with 10^6 JC cells suspended in phosphate-buffered saline. The SK inhibitors Compounds 62 and 57 were dissolved in PEG400 and administered to mice every-other day at a dose of 100 mg/kg. Body weights and tumor volumes were monitored daily. In FIG. 1, tumor growth is expressed as the tumor volume relative to day 1 for each animal.

[3] = test system: female DBA/1 mice, collagen-induced arthritis; test: Collagen-Induced Arthritis (CIA) model; type: in vivo, mouse; settings: Day 12
Protocol: The anti-arthritis activities of the SK inhibitor Compound 62 were assessed in the Collagen-Induced Arthritis (CIA) model. Female DBA/1 mice were injected subcutaneously in the tail with chicken immunization-grade type II collagen (Chondrex) emulsified in complete Freund's adjuvant (Sigma) at 2 mg/mL. Three weeks later, the mice received a collagen booster in incomplete Freund's adjuvant and were monitored daily thereafter for arthritic symptoms. […] The severity of disease in each animal was quantified by measurement of the hind paw volume with digital calipers. […] Differences among treatment groups were tested using ANOVA.

T24 (bladder) = test: Human tumor cell line panel, sulforhodamine B; type: cell-based; settings: 48 hours, mean ± sd
[4] = test system: MCF-7 human breast adenocarcinoma cells; test: Cytotoxicity, SRB binding assay; type: cell-based; settings: MCF7, inhibition of cell proliferation, 48 h, read-out: MCF-7 IC50
Outline: (§2)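 Cells exposed to varying compound doses for 48 h, then survival measured by sulforhodamine B staining. IC50 is the concentration giving 50% proliferation inhibition, in μM, as mean±sd of replicate trials.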

[5] = test system: MCF-10A non-transformed human breast epithelial cells; test: Cytotoxicity, SRB binding assay; type: cell-based; settings: inhibition of cell proliferation, 48 h, read-out: MCF-10A IC50
Outline: as §2

MEK kinase 1 = test: Kinase selectivity panel; type: biochemical; settings: 50 μM
Protocol: (§3) A common problem with attempts to develop protein kinase inhibitors is the lack of selectivity toward the target kinase since the majority of these compounds interact with nucleotide-binding domains that are highly conserved among kinases. […] The compound was tested at a single concentration of 50 μM.

Aurora-A = Aurora-A (Homo sapiens, UniProt O14965); test: Kinase selectivity panel; type: biochemical; settings: read-out: percent of control activity, Aurora-A
Protocol: as §3

Abl = Abl (Homo sapiens, UniProt P00519); test: Kinase selectivity panel; type: biochemical; settings: read-out: percent of control activity, Abl
Protocol: as §3

PKBγ = PKBγ (Homo sapiens, UniProt Q9Y243); test: Kinase selectivity panel; type: biochemical; settings: read-out: percent of control activity, PKBγ
Protocol: as §3

CDK1/cyclinB = CDK1/cyclinB (Homo sapiens, UniProt P06493); test: Kinase selectivity panel; type: biochemical; settings: read-out: percent of control activity, CDK1/cyclinB
Protocol: as §3

PKA = PKA (Homo sapiens, UniProt P17612); test: Kinase selectivity panel; type: biochemical; settings: read-out: percent of control activity, PKA
Protocol: as §3

HT-29 (colon) = test: Human tumor cell line panel, sulforhodamine B; type: cell-based; settings: 48 hours, mean ± sd
MCF-7 (breast, ER+) = test: Human tumor cell line panel, sulforhodamine B; type: cell-based; settings: MCF7, 48 hours, mean ± sd
physchem = settings: aqueous with cosolvent or surfactant or cyclodextrin
A-498 (kidney) = test: Human tumor cell line panel, sulforhodamine B; type: cell-based; settings: A498, 48 hours, mean ± sd
[6] = 100 mg/kg orally each day 6 days per week

Sequence of PKBγ (Q9Y243 whole entry, species assumed): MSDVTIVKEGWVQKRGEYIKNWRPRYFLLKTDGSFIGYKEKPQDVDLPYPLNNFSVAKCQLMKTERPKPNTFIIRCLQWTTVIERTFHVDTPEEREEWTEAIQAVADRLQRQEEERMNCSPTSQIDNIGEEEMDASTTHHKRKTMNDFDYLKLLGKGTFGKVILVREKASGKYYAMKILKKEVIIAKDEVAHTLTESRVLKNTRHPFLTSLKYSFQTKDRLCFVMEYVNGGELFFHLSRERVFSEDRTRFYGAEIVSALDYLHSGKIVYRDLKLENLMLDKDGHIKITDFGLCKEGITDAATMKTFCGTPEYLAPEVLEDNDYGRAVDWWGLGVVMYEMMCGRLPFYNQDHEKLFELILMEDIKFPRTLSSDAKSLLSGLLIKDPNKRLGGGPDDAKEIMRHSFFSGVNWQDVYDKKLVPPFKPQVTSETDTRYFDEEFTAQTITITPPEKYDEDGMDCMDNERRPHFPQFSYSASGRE
Sequence of Abl (P00519 whole entry, species assumed): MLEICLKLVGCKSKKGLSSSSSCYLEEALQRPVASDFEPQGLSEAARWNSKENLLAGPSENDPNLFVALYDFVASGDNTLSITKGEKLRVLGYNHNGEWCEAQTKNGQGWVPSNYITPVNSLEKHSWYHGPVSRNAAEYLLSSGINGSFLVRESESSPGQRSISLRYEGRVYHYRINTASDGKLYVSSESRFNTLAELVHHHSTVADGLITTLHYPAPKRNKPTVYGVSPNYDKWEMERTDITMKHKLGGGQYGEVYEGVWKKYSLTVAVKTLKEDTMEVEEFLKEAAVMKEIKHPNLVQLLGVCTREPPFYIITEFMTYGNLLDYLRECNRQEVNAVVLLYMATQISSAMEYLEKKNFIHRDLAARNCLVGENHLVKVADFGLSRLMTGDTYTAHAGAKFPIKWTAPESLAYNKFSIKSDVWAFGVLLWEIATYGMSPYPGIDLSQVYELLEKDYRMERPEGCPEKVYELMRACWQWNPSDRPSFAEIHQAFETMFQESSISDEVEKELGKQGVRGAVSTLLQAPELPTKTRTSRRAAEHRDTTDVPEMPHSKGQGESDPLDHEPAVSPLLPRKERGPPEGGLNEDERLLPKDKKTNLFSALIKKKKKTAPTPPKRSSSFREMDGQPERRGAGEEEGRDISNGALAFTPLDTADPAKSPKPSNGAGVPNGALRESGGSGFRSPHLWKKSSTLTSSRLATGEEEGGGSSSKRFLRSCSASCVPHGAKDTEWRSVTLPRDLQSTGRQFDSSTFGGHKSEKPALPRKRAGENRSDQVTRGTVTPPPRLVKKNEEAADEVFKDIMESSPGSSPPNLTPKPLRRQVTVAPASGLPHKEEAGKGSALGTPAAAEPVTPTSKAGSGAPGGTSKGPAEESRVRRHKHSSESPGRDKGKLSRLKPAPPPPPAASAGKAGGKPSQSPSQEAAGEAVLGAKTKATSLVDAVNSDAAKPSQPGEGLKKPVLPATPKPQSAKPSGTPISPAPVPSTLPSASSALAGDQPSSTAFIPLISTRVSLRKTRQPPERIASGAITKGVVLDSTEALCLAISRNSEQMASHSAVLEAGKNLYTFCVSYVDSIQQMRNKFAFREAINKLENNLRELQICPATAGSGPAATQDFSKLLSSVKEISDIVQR
Sequence of CDK1/cyclinB (P06493 whole entry, species assumed): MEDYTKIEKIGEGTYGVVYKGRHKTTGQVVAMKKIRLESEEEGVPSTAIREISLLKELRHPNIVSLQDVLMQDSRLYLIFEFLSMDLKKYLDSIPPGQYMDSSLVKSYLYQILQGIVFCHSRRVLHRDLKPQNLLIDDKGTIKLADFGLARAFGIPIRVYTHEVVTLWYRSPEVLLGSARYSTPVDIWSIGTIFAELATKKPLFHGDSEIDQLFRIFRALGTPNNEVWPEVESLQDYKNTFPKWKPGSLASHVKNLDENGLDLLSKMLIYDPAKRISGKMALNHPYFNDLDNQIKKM
Sequence of CDK1/cyclinB (P14635 whole entry partner, species assumed): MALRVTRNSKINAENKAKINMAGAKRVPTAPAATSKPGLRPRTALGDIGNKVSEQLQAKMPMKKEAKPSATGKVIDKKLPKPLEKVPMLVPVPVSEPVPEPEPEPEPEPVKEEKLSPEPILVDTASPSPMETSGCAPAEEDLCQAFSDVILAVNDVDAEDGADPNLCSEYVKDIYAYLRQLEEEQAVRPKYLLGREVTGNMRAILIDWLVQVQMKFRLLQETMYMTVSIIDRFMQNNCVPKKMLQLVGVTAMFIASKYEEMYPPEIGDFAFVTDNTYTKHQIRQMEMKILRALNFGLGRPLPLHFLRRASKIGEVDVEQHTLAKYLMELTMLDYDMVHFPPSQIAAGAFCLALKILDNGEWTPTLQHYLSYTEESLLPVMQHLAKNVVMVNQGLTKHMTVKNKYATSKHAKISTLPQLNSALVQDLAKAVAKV
Sequence of Aurora-A (O14965 whole entry): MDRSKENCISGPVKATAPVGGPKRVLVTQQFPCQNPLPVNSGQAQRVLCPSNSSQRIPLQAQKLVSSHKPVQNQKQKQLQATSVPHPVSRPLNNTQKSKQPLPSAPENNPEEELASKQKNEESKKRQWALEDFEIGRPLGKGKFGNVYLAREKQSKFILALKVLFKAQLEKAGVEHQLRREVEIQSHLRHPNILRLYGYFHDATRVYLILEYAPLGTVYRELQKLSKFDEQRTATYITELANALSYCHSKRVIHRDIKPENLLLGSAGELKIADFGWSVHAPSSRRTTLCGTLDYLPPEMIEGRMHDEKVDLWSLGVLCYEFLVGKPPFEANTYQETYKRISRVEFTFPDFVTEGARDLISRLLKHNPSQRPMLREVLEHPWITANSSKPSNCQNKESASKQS

## O=C(NCc1ccncc1)C12CC3CC(C1)CC(c1ccc(Cl)cc1)(C3)C2 [Compound 62, 3-(4-Chloro-phenyl)-adamantane-1-carboxylic acid (pyridin-4-ylmethyl)-amide]
[1]
  Cmax: 55.8 µM
  Tmax: 0.5 h
  half-life: 7.3 h
[1]; read-out: AUC0→∞ (μM * h)
  AUC(0-inf): 452 µM·h
[1]; read-out: AUC0→∞ (μg * h/mL)
  AUC(0-inf): 172 µg·h/mL
VCAM-1
  TNFα induction of VCAM-1: completely abrogated
ICAM-1
  TNFα induction of ICAM-1: completely abrogated
[2]; 100 mg/kg oral every-other day in PEG400
  inhibition of tumor growth relative to controls: 69%
[2]; JC tumor model, intraperitoneal (ip) or oral (po) administration
  In vivo activity: active - ip and po
[2]; mouse, in vivo
  toxicity to the mice in dose-response study: No toxicity
[3]; [6]
  reduction in clinical score vs vehicle: 67%
  reduction in the increase in hind paw thickness vs vehicle: 90%
[3]; 100 mg/kg orally
  histologic damage of tibiotarsal joints: significantly reduced
T24 (bladder)
  IC50: 39.4 ± 7.4 µM
[4]
  IC50: 17 µM
[5]
  IC50: 21 µM
MEK kinase 1
  percent of control activity, MEK kinase 1: 104 ± 3%
Aurora-A
  remaining activity at 50 µM: 103 ± 1%
Abl
  remaining activity at 50 µM: 98%
PKBγ
  remaining activity at 50 µM: 105 ± 8%
CDK1/cyclinB
  remaining activity at 50 µM: 105 ± 1%
PKA
  remaining activity at 50 µM: 104 ± 5%
HT-29 (colon)
  IC50: 48.1 ± 7.6 µM
MCF-7 (breast, ER+)
  IC50: 18.4 ± 7.4 µM
physchem
  solubility: ≥ 15000 µg/mL and 30000 µM to 40000 µM
A-498 (kidney)
  IC50: 12.2 ± 6 µM
